What was measured:
SW480 cells [1] = experiment: Caveolin-1 expression (Western blot) in SW480 cells; format: cell-based, human; settings: SW480, 72 hr
Method: SW480, HT-29, HCT-15 and Panc-28 (3×10^5) colon cancer cells were seeded in 6-well tissue culture plates in DMEM/Ham's F-12 medium containing 2.5% charcoal-stripped FBS. Protein is extracted from the cells treated either with vehicle or indicated compounds suspended for 24 hr except for caveolin-1 protein which was done for 72 hr. Samples were extracted in high salt buffer [50 mmol/L HEPES, 500 mmol/L NaCl, 1.5 mmol/L MgCl2, 1 mmol/L EGTA, 10% glycerol, and 1% Triton X-100 (pH 7.5), and 5 μL/mL protease inhibitor cocktail (Sigma-Aldrich)]. Samples were incubated at 100° C. for 2 min, separated on either 10% or 12% SDS-PAGE gels and then transferred to polyvinylidene difluoride membrane (PVDF; Bio-Rad, Hercules, Calif.). The PVDF membrane was blocked in 5% TBST-Blotto (10 mM Tris HCl, 150 mM NaCl, pH 8.0, 0.05% Triton X-100, and 5% nonfat dry milk) for about 30 min and was then incubated in fresh 5% TBST-Blotto with 1:1000 for caveolin-1 (Santa Cruz Biotechnology, Santa Cruz, Calif.), 1:1000 for p21 (BD Pharmingen, Frank lakes, NJ) and 1:10000 for β-actin (Sigma) primary antibody overnight with gentle shaking at 4° C. After washing with TBST for 10 min, the membrane was incubated with respective secondary antibody (1:5000) (Santa cruz, Calif.) in 5% TBST-Blotto for 3 hr. The membrane is then washed with TBST for 10 min, incubated with chemiluminiscence reagent from Perkin Elmer for one min and then exposed to Kodak X-OMAT AR autoradiography film (Eastman Kodak, Rochester, N.Y.).

SW480 cells [2] = experiment: KLF4 mRNA (RT-PCR) in SW480 cells; format: cell-based, human
Method: SW480 and HT29 colon cancer cells were treated either with vehicle (DMSO) or indicated compounds and after 24 hr total RNA was extracted using RNeasy Mini kit (Qiagen, Inc., Valencia, Calif.). RNA concentration was measured by UV 260:280 nm absorption ratio and 2 μg RNA was used to synthesize cDNA using Reverse Transcription System (Promega). PCR conditions were as follows: initial denaturation at 94° C. (1 min) followed by 28 cycles of denaturation for 30 s at 94° C., annealing for 60 s at 55° C. and extension at 72° C. for 60 s and a final extension step at 72° C. for 5 min. The mRNA levels were normalized using GAPDH as an internal housekeeping gene. Primers obtained from IDT and used for amplification are as follows: KLF4 (sense 5′-CTATGGCAGGGAGTCCGCTCC-3′ (SEQ ID NO: 1); antisense 5′-ATGACCGACGGGCTGCCGTAC-3′ (SEQ ID NO: 2)) and GAPDH (sense 5′-ACGGATTTGGTCGTATTGGGCG-3′ (SEQ ID NO: 3); antisense 5′-CTCCTGGAAGATGGTGATGG-3′ (SEQ ID NO: 4). PCR products were electrophoresed on 1% agarose gels containing ethidium bromide and visualized under UV transillumination.

PPARγ = biological target: T1, PPARγ (Homo sapiens, UniProt P37231); experiment: Mammalian two-hybrid assay (VP-PPARγ / GAL4-coactivator) in SW480 cells; format: cell-based
T1 construct: containing the DEF region of the PPARγ (amino acids 183-505) fused to the pVP16 expression vector; expressed in transfected cells; host or cells: SW480 colon cancer cells; plasmid provided by Dr. Shigeaki Kato (University of Tokyo)
T1 sequence (P37231 183-505): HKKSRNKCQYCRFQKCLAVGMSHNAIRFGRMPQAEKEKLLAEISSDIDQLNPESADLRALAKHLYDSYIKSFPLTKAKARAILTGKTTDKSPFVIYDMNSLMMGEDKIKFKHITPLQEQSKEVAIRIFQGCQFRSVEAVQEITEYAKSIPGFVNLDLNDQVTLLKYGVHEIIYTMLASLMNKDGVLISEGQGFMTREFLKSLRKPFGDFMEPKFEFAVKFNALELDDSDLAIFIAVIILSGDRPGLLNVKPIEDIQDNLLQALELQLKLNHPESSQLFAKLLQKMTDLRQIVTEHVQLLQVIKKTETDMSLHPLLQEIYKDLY
Method: The GAL4 reporter construct containing 5×GAL4 response elements (p GAL4) was provided by Dr. Marty Mayo (University of […], Chapel Hill, N.C.). The GAL4-coactivator fusion plasmids pM-SRC1, pMSRC2, pMSRC3, pM-DRIP205, pM-CARM-1 and PPARγ-VP16 fusion plasmid (Vp-PPARγ) containing the DEF region of the PPARγ (amino acids 183-505) fused to the pVP16 expression vector were provided by Dr. Shigeaki Kato (University of Tokyo, Tokyo, Japan). SW480 colon cancer cells were plated in 12-well tissue culture plates at 1×10^5 cells per well in DMEM/Ham's F-12 medium supplemented with 2.5% charcoal stripped FBS.
After allowing them to adhere overnight, transient transfections were carried out with GAL4-Luc (0.4 μg), β-GAL (0.04 μg), VP-PPARγ (0.04 μg), pM-SRC1 (0.04 μg), pM-PGC-1 (0.04 μg), pM-SMRT (0.04 μg), pM-TRAP220 (0.04 μg), pM-DRIP205 (0.04 μg), and pMCARM1 (0.04 μg) using LipofectAMINE2000 (Invitrogen) following the manufacturer's guidelines. After 6 hr of transfection, cells were treated in triplicate either with vehicle (DMSO) or the indicated compound suspended in complete medium for 20-24 hr. One hundred μL per well of 1× Reporter Lysis Buffer (Promega) was used to lyse the cells and 30 μl of this lysate was used to perform the luciferase and β-GAL assays using Lumicount (Perkin-Elmer Life and Analytical Sciences, Boston, Mass.). The luciferase activities obtained were normalized to the β-gal activity.

SW480 cells [3] = experiment: Apoptosis (PARP cleavage, Western blot) in SW480 cells; format: cell-based, human; settings: SW480, 24 hr
Method: Induction of KLF4 in HT-29 (FIG. 12A) and SW480 (FIG. 12B) cells. Cells were treated with different concentrations of CDODA isomers or T007 alone or in combination, and KLF4 mRNA levels were determined by real time PCR. […] KLF4 mRNA levels were not induced in SW480 cells by BA derivatives. FIGS. 12C-12D show induction of apoptosis. Panc28 (FIG. 12C) and SW480 (FIG. 12D) cells were treated for 24 hr with betulinic acid and related compounds and whole cell lysates were examined by Western blot analysis.
SW480, HT-29, HCT-15 and Panc-28 (3×10^5) colon cancer cells were seeded in 6-well tissue culture plates in DMEM/Ham's F-12 medium containing 2.5% charcoal-stripped FBS. Protein is extracted from the cells treated either with vehicle or indicated compounds suspended for 24 hr except for caveolin-1 protein which was done for 72 hr. Samples were extracted in high salt buffer [50 mmol/L HEPES, 500 mmol/L NaCl, 1.5 mmol/L MgCl2, 1 mmol/L EGTA, 10% glycerol, and 1% Triton X-100 (pH 7.5), and 5 μL/mL protease inhibitor cocktail (Sigma-Aldrich)]. Samples were incubated at 100° C. for 2 min, separated on either 10% or 12% SDS-PAGE gels and then transferred to polyvinylidene difluoride membrane (PVDF; Bio-Rad, Hercules, Calif.). […]

Row | SMILES | caveolin-1 induction (SW480 cells [1]) | caveolin-1 protein level (SW480 cells [1]) | KLF4 expression (SW480 cells [2]) | activation of GAL4-CARM1 (PPARγ) | luciferase activity, VP-PPARγ with GAL4 PGC-1 and GAL4 SRC-1 (PPARγ) | caspase-dependent PARP cleavage (SW480 cells [3])
1 | COC(=O)C12CCC(C(C)C)C1C1CCC3C4(C)C=C(C#N)C(=O)C(C)(C)C4CCC3(C)C1(C)CC2 (stereo not shown) [CN-BA-Me, Methyl 2-cyano-lup-1-en-3-oxo-20-oate] | did not induce caveolin-1 expression | decreased expression | did not induce KLF4 expression | activated | significantly induced luciferase activity | –
2 | CC(C)C1CCC2(C(=O)O)CCC3(C)C(CCC4C5(C)C=C(C#N)C(=O)C(C)(C)C5CCC43C)C12 (stereo not shown) [CN-BA] | did not induce caveolin-1 expression | decreased expression | did not induce KLF4 expression | – | significantly induced luciferase activity | induced caspase-dependent PARP cleavage

Reference: US20090203661A1, “Betulinic acid, derivatives and analogs thereof and uses therefor” (priority 2006, published 2009)
